Assay results: patent US20070292386A9, “Vaccine formulations for intradermal delivery comprising adjuvants and antigenic agents” (priority 2004, published 2007)
Ends that are not written are not given here.

B1: IL-12: heterodimeric cytokine interleukin-12 (protein, UniProt P29459 23-219; P29460 23-328, looked up)
Interleukin-12 subunit alpha: RNLPVATPDPGMFPCLHHSQNLLRAVSNMLQKARQTLEFYPCTSEEIDHEDITKDKTSTVEACLPLELTKNESCLNSRETSFITNGSCLASRKTSFMMALCLSSIYEDLKMYQVEFKTMNAKLLMDPKRQIFLDQNMLAVIDELMQALNFNSETVPQKSSLEEPDFYKTKIKLCILLHAFRIRAVTIDRVMSYLNAS
Interleukin-12 subunit beta: IWELKKDVYVVELDWYPDAPGEMVVLTCDTPEEDGITWTLDQSSEVLGSGKTLTIQVKEFGDAGQYTCHKGGEVLSHSLLLLHKKEDGIWSTDILKDQKEPKNKTFLRCEAKNYSGRFTCWWLTTISTDLTFSVKSSRGSSDPQGVTCGAATLSAERVRGDNKEYEYSVECQEDSACPAAEESLPIEVMVDAVHKLKYENYTSSFFIRDIIKPDPPKNLQLKPLKNSRQVEVSWEYPDTWSTPHSYFSLTFCVQVQGKSKREKKDRVFTDKTSATVICRKNASISVRAQDRYYSSSWSEWASVPCS
B2: IL-7: cytokine interleukin-7 (protein, UniProt P13232 26-177, looked up)
Interleukin-7: DCDIEGKDGKQYESVLMVSIDQLLDSMKEIGSNCLNNEFNFFKRHICDANKEGMFLFRAARKLRQFLKMNSTGDFDLHLLKVSEGTTILLNCTGQVKGRKPAALGEAQPTKSLEENKSLKEQKKLNDLCFLKRLLQEIKTCWNKILMGTKEH

What follows are molecules tested on influenza antigen (Influenza APR834). Settings: adjuvant with Fluzone, intradermal, Balb/c mice, one immunization, sera 21 days, vs Fluzone alone.
Type: in vivo
Set-up: key: greater immune response (as indicated by X) as compared to the inoculums that contained Fluzone alone, or the non-immune inoculums

Molecule | Increased Immune Response, Fluzone
IL-6: cytokine interleukin 6 | X
Interferon-gamma: cytokine, interferon produced by lymphocytes | X
N-formyl-NIe Leu-Phe-NIe-Tyr-Lys [Neutrophil Chemo-attractant Peptide] | X
Tyr-Leu-Glu-Pro-Gly-Pro-Val-Thr-Ala [Melanonin Peptide 946] | X
VGVAPG [Elastin Repeating Peptide, mammalian peptide adjuvant] | X
B1 | X
B2 | X
